Measured values taken from patent US20080227819A1, “Method for identifying the agonistic activity of a target compound on a potassium channel” (Gruenenthal GmbH, priority 2007, published 2008).

Legend:
Format in all cases: cell-based
[1] = molecular target: T1, KCNQ2 channels and KCNQ3 channels (Homo sapiens, UniProt O43525+O43526); assay: ion jump assay format for searching for potassium channel blockers (potassium injection to extracellular medium); settings: KCl final concentration 91.8 mM, FIG. 3
T1 construct: expressed in transfected cells; host or cells: CHO cells (Chinese hamster ovary cells)
Procedure: FIG. 3: Influence of XE991 on the fluorescence response after potassium injection to the extracellular medium in a ion jump assay format for searching for potassium channel blockers. The time response of the fluorescence intensity of CHO cells expressing the KCNQ channels before and after the application (arrow) of […] potassium chloride is depicted.
The seeding of KCNQ-expressing cells in assay plates, the loading with the dye and the measurement devices to be used as well as the wavelengths to be set are in accordance with Example 1. […] Then the base line was monitored in the fluorescence reader for 3-4 min and the fluorescence values were measured for 10 min after the injection of 15 μl of a KCl solution (final concentration 91.8 mM) in each cavity of the plate.
In FIG. 3 the time response of the fluorescence intensity of CHO cells expressing the KCNQ channels before and after the application (arrow) of 91.8 mM potassium chloride is depicted. The fluorescence responses of the cells in the absence (Δ) and presence (▪) of the known KCNQ channel blocker XE991 (60 μM) are shown. The percental change in the fluorescence intensity (ΔF/F) based on the averaged fluorescence intensity before the potassium application is depicted.

[2] = molecular target: T1, KCNQ2 channels and KCNQ3 channels; assay: depolarisation assay format, voltage-sensitive fluorescent dye, CHO cells expressing KCNQ channels; settings: saturating concentration of XE991 (60 μM), ΔF/F, control cells subtracted, FIG. 1
Procedure: FIG. 1: Effect of XE991 on the membrane potential of cells expressing KCNQ channels in a depolarisation assay format. The time response of the fluorescence intensity of CHO cells expressing KCNQ channels before and after the application (arrow) of a known KCNQ channel blocker (XE991, 60 μM) is depicted.
CHO cells (Chinese hamster ovary cells) expressing KCNQ2 channels and KCNQ3 channels were adherently cultivated in a nutrient medium [Minimum Essential Medium (MEM), α medium 22571 1×liquid (Invitrogen), 10% Fetal Calf Serum (FCS) (Gibco, heat inactivated), including selection antibiotics] at 37° C., 5% CO2 and 95% air humidity in cell culture bottles. […] After incubation with the dye, either 50 μl ES (control) or 50 μl of the KCNQ channel blocker XE991 in independent wells in a saturating concentration (final concentration 60 μM) were added and incubated for […] with concurrent monitoring of the fluorescence in the reader. The measurements were carried out by a Fluostar or Polarstar fluorescence reader of the company BMG or the FlexStation of the company Molecular Devices. It was excited at a wavelength of 525 nm and detected at a wavelength of 560 nm.
In FIG. 1 the time response of the fluorescence intensity of CHO cells expressing KCNQ channels before and after the application (arrow) of a known KCNQ channel blocker (XE991) is depicted. […]

[3] = molecular target: T1, KCNQ2 channels and KCNQ3 channels; assay: hyperpolarisation assay format, voltage-sensitive fluorescent dye, CHO cells expressing KCNQ channels; settings: retigabine 30 μM, ΔF/F, control cells subtracted, FIG. 2
Procedure: FIG. 2: Effect of retigabine on the membrane potential of cells expressing KCNQ channels in a hyperpolarisation assay format. The time response of the fluorescence intensity in CHO cells expressing KCNQ channels before and after the application (arrow) of a known KCNQ channel opener (retigabine, 30 μM) is depicted.
The cells were seeded into assay plates and loaded with the dye in exactly the same way as described in Example 1. The measurements were carried out by a Fluostar or Polarstar fluorescence reader of the company BMG or the FlexStation of the company Molecular Devices. It was excited at a wavelength of 525 nm and detected at a wavelength of 560 nm. After incubation with the dye, the base line was monitored for 5 min. Then either 50 up ES buffer (control) or 50 μl of the KCNQ agonist retigabine (30 μM) were added and the fluorescence was monitored in an appropriate reader for 7.5 min.
In FIG. 2 the time response of the fluorescence intensity of CHO cells expressing KCNQ channels before and after the application (arrow) of the known KCNQ channel opener (retigabine, 30 μM) is depicted. The percental change in the fluorescence intensity (ΔF/F) based on the averaged fluorescence intensity before the application of retigabine is depicted. The course of the fluorescence of the control cells (application of buffer) was subtracted from the retigabine-induced fluorescence signal.

T1 sequence (O43525 whole entry): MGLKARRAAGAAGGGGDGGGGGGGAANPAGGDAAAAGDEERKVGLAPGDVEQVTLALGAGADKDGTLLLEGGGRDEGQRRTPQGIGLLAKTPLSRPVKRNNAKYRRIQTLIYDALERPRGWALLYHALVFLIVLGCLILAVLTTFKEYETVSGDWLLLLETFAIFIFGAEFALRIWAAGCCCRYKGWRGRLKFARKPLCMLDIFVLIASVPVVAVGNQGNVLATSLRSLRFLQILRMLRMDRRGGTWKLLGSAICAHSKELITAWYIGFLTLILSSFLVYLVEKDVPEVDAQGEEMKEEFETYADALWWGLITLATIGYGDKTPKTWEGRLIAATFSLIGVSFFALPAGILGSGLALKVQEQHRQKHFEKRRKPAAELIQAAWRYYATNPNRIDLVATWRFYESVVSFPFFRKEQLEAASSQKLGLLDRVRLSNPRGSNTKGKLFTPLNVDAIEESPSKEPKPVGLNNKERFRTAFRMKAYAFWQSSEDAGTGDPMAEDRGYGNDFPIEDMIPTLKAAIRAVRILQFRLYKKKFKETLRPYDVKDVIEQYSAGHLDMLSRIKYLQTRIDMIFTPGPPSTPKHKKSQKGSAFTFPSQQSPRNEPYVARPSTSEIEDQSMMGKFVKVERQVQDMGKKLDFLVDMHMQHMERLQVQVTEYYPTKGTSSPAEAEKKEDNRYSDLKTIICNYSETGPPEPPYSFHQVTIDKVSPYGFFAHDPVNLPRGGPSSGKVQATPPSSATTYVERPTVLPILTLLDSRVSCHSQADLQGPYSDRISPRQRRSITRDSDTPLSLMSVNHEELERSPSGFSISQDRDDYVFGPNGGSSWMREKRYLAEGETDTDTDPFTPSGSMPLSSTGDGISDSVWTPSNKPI
T1 sequence (O43526 whole entry): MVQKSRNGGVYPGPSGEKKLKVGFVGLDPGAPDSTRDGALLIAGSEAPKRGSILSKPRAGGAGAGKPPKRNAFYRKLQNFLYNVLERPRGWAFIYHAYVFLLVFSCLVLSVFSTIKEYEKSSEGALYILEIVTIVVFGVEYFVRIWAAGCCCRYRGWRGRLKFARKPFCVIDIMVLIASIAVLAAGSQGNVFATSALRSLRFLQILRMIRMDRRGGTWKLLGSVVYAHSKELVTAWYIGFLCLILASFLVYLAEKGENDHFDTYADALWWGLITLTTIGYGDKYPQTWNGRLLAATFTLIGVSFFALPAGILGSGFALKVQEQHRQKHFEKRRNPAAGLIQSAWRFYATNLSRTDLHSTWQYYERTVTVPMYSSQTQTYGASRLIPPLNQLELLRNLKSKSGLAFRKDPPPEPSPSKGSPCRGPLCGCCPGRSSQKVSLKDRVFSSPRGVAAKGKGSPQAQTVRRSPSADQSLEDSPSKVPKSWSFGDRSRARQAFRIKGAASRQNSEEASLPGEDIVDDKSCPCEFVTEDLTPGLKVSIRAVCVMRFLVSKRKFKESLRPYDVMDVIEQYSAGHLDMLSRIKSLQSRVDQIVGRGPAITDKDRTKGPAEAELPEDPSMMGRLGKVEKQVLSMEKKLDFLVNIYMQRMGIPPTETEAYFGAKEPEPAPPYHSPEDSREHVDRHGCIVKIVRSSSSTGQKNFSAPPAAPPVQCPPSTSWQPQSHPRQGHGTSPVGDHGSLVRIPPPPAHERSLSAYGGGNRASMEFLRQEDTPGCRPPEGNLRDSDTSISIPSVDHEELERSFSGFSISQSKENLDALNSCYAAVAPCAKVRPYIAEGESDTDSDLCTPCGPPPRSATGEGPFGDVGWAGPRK

Row | Structure (SMILES) | difference of the amplitudes of the fluorescence responses in the presence and in the absence of a KCNQ channel blocker (dynamic range of the assay) ([1]; XE991 60 μM vs control cells) | fluorescence response after the potassium application in the presence of the blocker ([1]; saturating concentration of XE991 (60 μM), 30 min, control cells show increase by about 80%) | increase in the fluorescence intensity after application of the KCNQ channel blocker [2] | decrease in the fluorescence intensity after application of retigabine [3]
1 | O=C1c2ccccc2C(Cc2ccncc2)(Cc2ccncc2)c2ccccc21 [XE991] | about 80% | no increase in the fluorescence | about 55% | 
2 | CCOC(=O)Nc1ccc(NCc2ccc(F)cc2)cc1N [retigabine] |  |  |  | 35-40%
